The results in this text go back to patent publication US20130012434A1, “NOVEL SPIRO IMIDAZOLONES AS GLUCAGON RECEPTOR ANTAGONISTS, COMPOSITIONS, AND METHODS FOR THEIR USE” (priority 2010, published 2013).

The test deals with T1, recombinant human glucagon receptor (Homo sapiens, UniProt P47871).
T1 construct: expressed in transfected cells; host or cells: CHO cells
The experiment in a line: Inhibition of glucagon-stimulated intracellular cAMP assay. It is filed as cell-based. As to conditions: CHO cells expressing recombinant human glucagon receptor, stimulated with 300 pM glucagon, LANCE cAMP kit. As for the experimental part:
Inhibition of Glucagon-Stimulated Intracellular cAMP Assay
Chinese hamster ovary (CHO) cells expressing the recombinant human glucagon receptor were harvested with the aid of non-enzymatic cell dissociation solution (GIBCO 13151-014). The cells were then pelleted and suspended in the stimulation buffer (1×HBSS, 5 mM Hepes, 0.1% BSA, pH7.4 in presence of complete protease inhibitor and phosphodiesterase inhibitor). The adenylate cyclase assay was conducted following the LANCE cAMP Kit (Perkin Elmer, AD0262) instructions. Briefly, cells were preincubated with anti-cAMP antibody in the stimulation buffer with a final concentration of 3% DMSO for 30 minutes and then stimulated with 300 pM glucagon for 45 minutes. The reaction was stopped by incubating with the detection buffer containing Europium chelate of the Eu-SA/Biotin-cAMP tracer for 20 hours. The fluorescence intensity emitted from the assay was measured at 665 nm using PheraStar instruments. […] Standard cAMP concentrations were conducted concurrently for conversion of fluorescence signal to cAMP level. Data was analyzed using GraphPad Prism. IC50 values were calculated using non-linear regression analysis assuming single site competition. […] Some of the compounds of the invention shown in the examples measured less than about 5 μM in this assay; other examples measured less than about 500 nM; others less than about 100 nM. […]
(In general: cAMP levels reflect the balance of adenylyl cyclase and phosphodiesterase activity.)

T1 sequence (P47871 26-477): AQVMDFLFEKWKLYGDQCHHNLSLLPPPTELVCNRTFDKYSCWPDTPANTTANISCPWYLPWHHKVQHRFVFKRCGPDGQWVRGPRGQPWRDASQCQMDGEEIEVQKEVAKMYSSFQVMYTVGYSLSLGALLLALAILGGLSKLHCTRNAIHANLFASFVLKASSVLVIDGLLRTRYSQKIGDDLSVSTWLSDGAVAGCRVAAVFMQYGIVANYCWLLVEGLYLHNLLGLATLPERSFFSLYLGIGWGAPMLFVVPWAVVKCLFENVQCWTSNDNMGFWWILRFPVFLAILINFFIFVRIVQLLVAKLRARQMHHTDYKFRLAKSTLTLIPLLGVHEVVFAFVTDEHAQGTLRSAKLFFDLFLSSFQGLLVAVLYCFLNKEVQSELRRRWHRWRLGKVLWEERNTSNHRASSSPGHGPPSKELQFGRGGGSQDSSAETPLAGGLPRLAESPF

Regarding `CC(C)(C)CC[C@H](c1ccc(C(=O)NCCC(=O)O)cc1)N1C(=O)C(c2cccc(F)c2)=NC12CCC([Si](C)(C)C)CC2` (some centres unmarked) [Example 5.26], the IC50 turned out to be 61 nM.

Regarding `CC(C)(C)CCOc1cccc(C2=NC3(CCC(C(C)(C)C)CC3)N([C@H](CCC(C)(C)C)c3ccc(C(=O)NCc4nn[nH]n4)cc3)C2=O)c1` (some centres unmarked) [Example 5.69], the IC50 is 22 nM.

What is called IC50 is the point on the concentration scale where inhibition reaches its midpoint.
